Test results published in patent publication US20080241080A1, “COMPOSITION FOR TREATING XEROSTOMIA OR DRY MOUTH” (BIOCOSMETICS, S.L., priority 2007, published 2008).

Assay: Dentin loss under extreme erosion conditions, composition versus its three ingredients separately (Example 8)
Design: species or system cow
Details: 10 cycles: 5 min pre-treatment, 1% citric acid pH 2.3 for 3 min; vs distilled water
Method: The protective capacity of a mouthwash formulated with olive oil, trimethylglycine and xylitol in dentin subjected to extreme erosion conditions was analysed, compared to that of aqueous solutions of the three ingredients separately in the same concentrations used in the mouthwash tested. For the evaluation of effects a control was included consisting of distilled water.
Incisive teeth extracted from a cow's jaw were used, which were immersed in a 0.5% thymol solution at room temperature. The teeth were sectioned at the cementum-enamel junction by means of a water-cooled diamond scalpel (Exakt, Norderstedt, Germany), and the crowns and roots were embedded in acrylic resin cylinders (Paladur, Heraeus Kulzer, Wehrheim, Germany). Radicular cementum was completely eliminated. […]
Dentin loss was quantified performing profile or profilometric measurements (Mahr Perthometer, Göttingen, Germany). […] After the experiment the adhesive tapes were removed and the samples were analysed again. The average depth of the eroded surfaces was thus calculated with respect to basic surface profiles by means of specific software (Mahr Perthometer Concept 7.0, Mahr, Göttingen, Germany).
Dentin loss was calculated (mean±standard deviation) for each group and statistically analysed by Student's t test followed by Bonferroni's t test for multiple comparisons (Statistica 6.0, Statsoft, Tulsa, USA).

| Structure (SMILES) | protective effect on dentin against erosion |
| --- | --- |
| OC[C@@H](O)[C@H](O)[C@@H](O)CO [1% xylitol solution, xylitol] | did not demonstrate any protective effect |
| C[N+](C)(C)CC(=O)[O-] [2% trimethylglycine solution, trimethylglycine] | did not demonstrate any protective effect |
